Measured values as given in ChEMBL document CHEMBL1208771, “Improvement of both plasmepsin inhibitory activity and antimalarial activity by 2-aminoethylamino substitution” (Bioorg Med Chem Lett, 2010).

Assays:
Plasmepsin II = Plasmepsin II (Plasmodium falciparum, UniProt P46925); assay: Inhibition of Plasmodium falciparum plasmepsin-2
Plasmodium falciparum [1] = assay: Antiplasmodial activity against Plasmodium falciparum D6 infected in human erythrocytes by SYBR green I fluorescence assay; type: functional, organism-based
Plasmodium falciparum [2] = assay: Ratio of compound EC50 to chloroquine EC50 for Plasmodium falciparum D6 infected in human erythrocytes; type: functional

Sequence of Plasmepsin II (P46925 whole entry): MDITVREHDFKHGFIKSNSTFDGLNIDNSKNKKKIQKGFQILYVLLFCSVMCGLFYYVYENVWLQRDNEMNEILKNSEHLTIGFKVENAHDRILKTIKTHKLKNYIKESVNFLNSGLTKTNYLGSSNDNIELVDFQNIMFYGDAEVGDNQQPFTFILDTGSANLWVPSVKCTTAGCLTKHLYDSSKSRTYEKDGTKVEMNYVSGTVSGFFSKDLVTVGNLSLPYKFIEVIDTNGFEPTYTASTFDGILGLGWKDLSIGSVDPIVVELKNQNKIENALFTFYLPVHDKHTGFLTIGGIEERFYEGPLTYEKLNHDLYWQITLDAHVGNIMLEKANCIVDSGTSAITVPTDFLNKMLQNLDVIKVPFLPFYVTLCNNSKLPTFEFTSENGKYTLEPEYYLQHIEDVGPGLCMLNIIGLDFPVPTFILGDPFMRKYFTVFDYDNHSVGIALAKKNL

Compound	Ki (Plasmepsin II) [nM]	EC50 (Plasmodium falciparum [1]) [nM]	Ratio EC50 (Plasmodium falciparum [2])
Cc1cc(NCCN(C)C)cc(C)c1OCC(=O)N[C@@H](Cc1ccccc1)[C@H](O)C(=O)N1CSC(C)(C)[C@H]1C(=O)N[C@H]1c2ccccc2C[C@H]1O	17	2000	
CCN(CC)CCNc1cc(C)c(OCC(=O)N[C@@H](Cc2ccccc2)[C@H](O)C(=O)N2CSC(C)(C)[C@H]2C(=O)N[C@H]2c3ccccc3C[C@H]2O)c(C)c1	5.1	1600	
Cc1cc(N(C)CCN(C)C)cc(C)c1OCC(=O)N[C@@H](Cc1ccccc1)[C@H](O)C(=O)N1CSC(C)(C)[C@H]1C(=O)N[C@H]1c2ccccc2C[C@H]1O	< 0.1	360	
Cc1cc(N(C)CCN)cc(C)c1OCC(=O)N[C@@H](Cc1ccccc1)[C@H](O)C(=O)N1CSC(C)(C)[C@H]1C(=O)N[C@H]1c2ccccc2C[C@H]1O	8.5	1400	
CCN(CC)CCCC(C)Nc1ccnc2cc(Cl)ccc12 (stereo unspecified) [CHLOROQUINE]		20	
Cc1cc(NCc2ccccn2)cc(C)c1OCC(=O)N[C@@H](Cc1ccccc1)[C@H](O)C(=O)N1CSC(C)(C)[C@H]1C(=O)N[C@H]1c2ccccc2C[C@H]1O		560	
Cc1cc(NCCN)cc(C)c1OCC(=O)N[C@@H](Cc1ccccc1)[C@H](O)C(=O)N1CSC(C)(C)[C@H]1C(=O)N[C@H]1c2ccccc2C[C@H]1O	6.5	290	
CNCCN(C)c1cc(C)c(OCC(=O)N[C@@H](Cc2ccccc2)[C@H](O)C(=O)N2CSC(C)(C)[C@H]2C(=O)N[C@H]2c3ccccc3C[C@H]2O)c(C)c1	1.2	190	10
CCNCCNc1cc(C)c(OCC(=O)N[C@@H](Cc2ccccc2)[C@H](O)C(=O)N2CSC(C)(C)[C@H]2C(=O)N[C@H]2c3ccccc3C[C@H]2O)c(C)c1	0.68	220	

The remaining compounds from weak to strong by EC50 (Plasmodium falciparum [1]), led by results:

Ki (Plasmepsin II) [nM]	EC50 (Plasmodium falciparum [1]) [nM]	Compound	Ratio EC50 (Plasmodium falciparum [2])
	5000	Cc1cccc(C)c1OCC(=O)N[C@@H](Cc1ccccc1)[C@H](O)C(=O)N1CSC(C)(C)[C@H]1C(=O)N[C@H]1c2ccccc2C[C@H]1O	
9.1	1400	CNCCNc1cc(C)c(OCC(=O)N[C@@H](Cc2ccccc2)[C@H](O)C(=O)N2CSC(C)(C)[C@H]2C(=O)N[C@H]2c3ccccc3C[C@H]2O)c(C)c1	
10	1100	CCN(CC)CCN(CC)c1cc(C)c(OCC(=O)N[C@@H](Cc2ccccc2)[C@H](O)C(=O)N2CSC(C)(C)[C@H]2C(=O)N[C@H]2c3ccccc3C[C@H]2O)c(C)c1	
4.2	790	CCNCCN(CC)c1cc(C)c(OCC(=O)N[C@@H](Cc2ccccc2)[C@H](O)C(=O)N2CSC(C)(C)[C@H]2C(=O)N[C@H]2c3ccccc3C[C@H]2O)c(C)c1	
< 0.1	460	CCN(CCN)c1cc(C)c(OCC(=O)N[C@@H](Cc2ccccc2)[C@H](O)C(=O)N2CSC(C)(C)[C@H]2C(=O)N[C@H]2c3ccccc3C[C@H]2O)c(C)c1	
